Holding throughout (type): biochemical
One test addresses PDE3B (Homo sapiens, UniProt Q13370). Kind of test: Selective inhibitory activity assay, PDE3B. The conditions noted are these: read-out: Inhibition rate (%) of PDE3B. Here is the method: (§1) 7. Selective inhibitory activity assay for PDE1, 2, 3, 5, 7, 10 and 11 enzymes
(§2) The selective specificity of compounds for PDE4 was assessed by assaying single concentrations of the compounds. For example, PDE1a enzyme, PDElc enzyme, PDE2a enzyme, PDE3a enzyme, PDE3b enzyme, PDE5a1 enzyme, PDE7a enzyme, PDE7b enzyme, PDE10a1 enzyme and PDE11a4 enzyme were tested. The selective inhibitory effects of different compounds on the enzymatic activities of PDEIC, PDE2A, PDE3B, PDE5A1, PDE7A, and PDE10A1 at concentrations of 10 μM and 1 μM, respectively, are shown in the table below: […]

In a further test the target is PDE5A1 (Homo sapiens, UniProt O76074). Kind of test: Selective inhibitory activity assay, PDE5A1. The conditions noted are these: read-out: Inhibition rate (%) of PDE5A1. The protocol:
as §1, §2

In the next test the target is PDE2A (Homo sapiens, UniProt O00408). Nature of the test: Selective inhibitory activity assay, PDE2A. The note with it: read-out: Inhibition rate (%) of PDE2A. Here is the method: as §1, §2
A further test concerns the target PDE4D3 (Homo sapiens, UniProt Q08499). Kind of test: Inhibition assay of PDE4D3 enzyme (TR-FRET kit). The protocol: 2. Inhibition assay of PDE4D3 enzyme:
(§3) Materials and Instruments:
FAM substrate: A stock solution of 20 μM FAM substrate was diluted to 200 nM with PDE assay buffer. 12.5 μL of the diluted substrate was added to each reaction well.
(§4) 5 μL of the compound stock solution was added to 45 μL of DMSO to prepare a 1 mM diluent. 5 μL of the 1 mM diluent was added to 45 μL of PDE assay buffer to prepare a gradient dilution starting point. Then, according to the method of adding 5 μL of the previous concentration solution to 15 μL of PDE assay buffer, gradient dilution was carried out for 9 times to prepare compound working solutions with 10 concentrations. The working solutions were added to compound wells at 2.5 μL/well.
PDE4D3: 0.054 μL of a PDE4D3 recombinase stock solution was added to 1500 μL of PDE buffer, and the mixture was added to all compound wells and positive control wells at 10 μL/well. 10 μL of PDE assay buffer was added to substrate control wells.
Binding solution: 3750 μL of binding buffer A and 3750 μL of binding buffer B were mixed well. Then, 150 μL of a binder was added into the mixture and mixed well. 7.5 μL of a Tb donor was added and mixed well. The obtained mixture was added to all wells at 50 μL/well.
S520=Read value of sample 520 nm
S490=Read value of sample 490 nm
Tb520=Read value of Tb only 520 nm
Tb490=Read value of Tb only 490 nm
FRETp=Positive control FRET
FRETsub=Substrate control FRET.
For orientation: TR-FRET usually uses a lanthanide donor and a delayed reading to cut background.

A further test concerns the target PDE1C (Homo sapiens, UniProt Q14123). Nature of the test: Selective inhibitory activity assay, PDE1C. The note with it: read-out: Inhibition rate (%) of PDE1C. Here is the method: as §1, §2
The target of the next test is PDE7A (Homo sapiens, UniProt Q13946). Kind of test: Selective inhibitory activity assay, PDE7A. The conditions noted are these: read-out: Inhibition rate (%) of PDE7A. The protocol:
as §1, §2

The next test has as its target PDE10A1 (Homo sapiens, UniProt Q9Y233). Kind of test: Selective inhibitory activity assay, PDE10A1. The note with it: read-out: Inhibition rate (%) of PDE10A1. The protocol:
as §1, §2

Another test addresses T1, PDE4B2 (Homo sapiens, UniProt Q07343).
T1 construct: purchased BPS 60343
Nature of the test: Inhibition assay of PDE4B2 enzyme (FP kit). The protocol: 4. Inhibition assay of PDE4B2 enzyme:
as §3
(§5) FAM substrate: 25 μL of a FAM substrate stock solution was added into 2500 μL of PDE assay buffer. 25 μL of the diluted substrate was added to each reaction well.
(§6) 5 μL of the compound stock solution was added to 45 μL of DMSO to prepare a 1 mM diluent. 5 μL of the 1 mM diluent was added to 45 μL of PDE assay buffer to prepare a gradient dilution starting point. Then, according to the method of adding 5 μL of the previous concentration solution to 15 μL of PDE assay buffer, gradient dilution was carried out for 9 times to prepare compound working solutions with 10 concentrations. The working solutions were added to compound wells at 5 μL/well.
PDE4B2: First, a PDE4B2 stock solution was diluted by 100 times to a concentration of 5.2 ng/μL, 3.2 μL of the diluent was added to 2200 μL of PDE assay buffer, and the mixture was added to all compound wells and positive control wells at 20 μL/well. 20 μL of PDE assay buffer was added to substrate control wells.
Binding solution: 95 μL of binder was added into 9.5 mL of binder diluent, and then mixed well. The obtained mixture was added to all wells at 100 μL/well.
(§7) FPsub=Substrate control FP.

In the next test the target is T2, PDE4A1 (Homo sapiens, UniProt P27815).
T2 construct: purchased BPS 60340
Kind of test: Inhibition assay of PDE4A1 enzyme (FP kit). Here is the method: 3. Inhibition assay of PDE4A1 enzyme:
as §3, §5, §6
PDE4A1: First, a PDE4A1 stock solution was diluted by 100 times to a concentration of 4.9 ng/μL, 1.8 μL of the diluent was added to 2200 μL of PDE assay buffer, and the mixture was added to all compound wells and positive control wells at 20 μL/well. 20 μL of PDE assay buffer was added to substrate control wells.
Binding solution: 95 μL of binding buffer was added into 9.5 mL of binder diluent, and then mixed well. The obtained mixture was added to all wells at 100 μL/well.
as §7

Another test concerns the target T3, PDE4C1 (Homo sapiens, UniProt Q08493).
T3 construct: purchased BPS 60384
Nature of the test: Inhibition assay of PDE4C1 enzyme (FP kit). Here is the method: 5. Inhibition assay of PDE4C1 enzyme:
as §3
FAM substrate: 12.5 μL of a FAM substrate stock solution was added into 1250 μL of PDE assay buffer. 12.5 μL of the diluted substrate was added to each reaction well.
as §4
PDE4C1: First, a PDE4C1 stock solution was diluted by 100 times to a concentration of 3.2 ng/μL, 13.75 μL of the diluent was added to 1100 μL of PDE assay buffer, and the mixture was added to all compound wells and positive control wells at 10 μL/well. 10 μL of PDE assay buffer was added to substrate control wells.
Binding solution: 50 μL of binder was added into 5 mL of binder diluent, and then mixed well. The obtained mixture was added to all wells at 50 μL/well.
as §7

From US20240254082A1, “Substituted Isoindoline-1, 3-diketone PDE4 Inhibitor and Pharmaceutical Application Thereof” (SUZHOU INTRAGRAND PHARMA CO., LTD, priority 2021, published 2024) come the findings set out here.

Chain of PDE3B (Q13370 whole entry, species assumed): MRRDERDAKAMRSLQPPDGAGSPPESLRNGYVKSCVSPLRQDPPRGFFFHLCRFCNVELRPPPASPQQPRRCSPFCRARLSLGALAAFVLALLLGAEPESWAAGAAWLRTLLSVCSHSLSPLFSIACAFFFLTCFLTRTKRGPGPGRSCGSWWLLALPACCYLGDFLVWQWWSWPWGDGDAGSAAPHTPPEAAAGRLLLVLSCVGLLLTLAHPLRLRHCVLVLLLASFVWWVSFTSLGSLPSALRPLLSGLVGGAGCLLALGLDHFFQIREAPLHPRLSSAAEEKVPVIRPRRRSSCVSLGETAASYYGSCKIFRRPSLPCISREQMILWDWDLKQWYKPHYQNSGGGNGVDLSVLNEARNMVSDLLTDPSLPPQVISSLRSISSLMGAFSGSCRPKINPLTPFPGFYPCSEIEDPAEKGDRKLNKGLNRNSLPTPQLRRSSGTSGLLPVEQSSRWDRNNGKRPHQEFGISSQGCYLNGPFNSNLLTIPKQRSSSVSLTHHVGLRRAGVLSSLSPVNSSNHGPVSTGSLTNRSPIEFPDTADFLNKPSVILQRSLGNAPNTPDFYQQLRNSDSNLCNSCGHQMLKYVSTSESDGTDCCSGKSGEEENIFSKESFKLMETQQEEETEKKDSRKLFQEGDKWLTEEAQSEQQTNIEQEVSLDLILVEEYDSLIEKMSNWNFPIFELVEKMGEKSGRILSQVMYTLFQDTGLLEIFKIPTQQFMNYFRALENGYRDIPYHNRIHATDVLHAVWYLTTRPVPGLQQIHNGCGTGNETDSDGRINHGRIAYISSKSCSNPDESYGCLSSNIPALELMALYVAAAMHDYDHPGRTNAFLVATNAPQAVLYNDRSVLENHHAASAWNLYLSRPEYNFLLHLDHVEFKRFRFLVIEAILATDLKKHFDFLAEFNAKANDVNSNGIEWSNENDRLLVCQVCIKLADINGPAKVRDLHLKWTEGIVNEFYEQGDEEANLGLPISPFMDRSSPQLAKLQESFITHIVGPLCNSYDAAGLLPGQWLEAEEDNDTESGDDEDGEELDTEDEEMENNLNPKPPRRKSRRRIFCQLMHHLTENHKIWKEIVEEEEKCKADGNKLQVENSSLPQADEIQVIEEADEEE
T3 sequence (Q08493 whole entry): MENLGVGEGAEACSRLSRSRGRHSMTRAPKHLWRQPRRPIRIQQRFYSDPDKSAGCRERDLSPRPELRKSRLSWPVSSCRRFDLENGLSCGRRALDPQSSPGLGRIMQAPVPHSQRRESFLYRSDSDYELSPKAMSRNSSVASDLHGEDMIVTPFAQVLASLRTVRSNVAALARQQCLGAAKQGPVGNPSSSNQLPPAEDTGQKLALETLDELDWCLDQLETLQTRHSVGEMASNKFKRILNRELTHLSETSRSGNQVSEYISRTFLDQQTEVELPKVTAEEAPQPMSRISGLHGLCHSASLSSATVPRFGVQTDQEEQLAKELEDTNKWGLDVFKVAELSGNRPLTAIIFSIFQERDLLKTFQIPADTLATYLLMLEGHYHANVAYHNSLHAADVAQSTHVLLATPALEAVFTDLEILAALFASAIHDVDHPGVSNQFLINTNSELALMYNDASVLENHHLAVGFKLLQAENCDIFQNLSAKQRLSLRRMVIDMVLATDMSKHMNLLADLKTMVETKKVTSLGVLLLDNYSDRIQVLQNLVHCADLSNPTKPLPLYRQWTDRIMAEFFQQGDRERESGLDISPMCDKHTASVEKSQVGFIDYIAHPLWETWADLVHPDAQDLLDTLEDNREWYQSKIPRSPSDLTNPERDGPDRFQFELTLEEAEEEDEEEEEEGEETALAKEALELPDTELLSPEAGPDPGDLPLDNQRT
Chain of PDE7A (Q13946 whole entry, species assumed): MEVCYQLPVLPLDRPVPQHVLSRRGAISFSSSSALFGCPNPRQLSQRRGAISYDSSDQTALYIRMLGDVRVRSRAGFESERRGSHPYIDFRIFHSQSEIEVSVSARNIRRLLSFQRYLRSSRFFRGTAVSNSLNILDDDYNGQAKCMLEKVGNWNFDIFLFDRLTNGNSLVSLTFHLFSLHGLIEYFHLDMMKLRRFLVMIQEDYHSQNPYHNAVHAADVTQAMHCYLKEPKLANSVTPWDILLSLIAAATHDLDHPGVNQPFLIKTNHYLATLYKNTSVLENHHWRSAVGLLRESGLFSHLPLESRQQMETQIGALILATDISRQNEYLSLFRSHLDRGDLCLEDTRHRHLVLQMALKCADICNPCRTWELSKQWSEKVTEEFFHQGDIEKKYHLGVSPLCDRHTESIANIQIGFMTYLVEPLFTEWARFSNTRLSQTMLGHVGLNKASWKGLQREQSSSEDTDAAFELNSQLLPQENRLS
Chain of PDE2A (O00408 whole entry, species assumed): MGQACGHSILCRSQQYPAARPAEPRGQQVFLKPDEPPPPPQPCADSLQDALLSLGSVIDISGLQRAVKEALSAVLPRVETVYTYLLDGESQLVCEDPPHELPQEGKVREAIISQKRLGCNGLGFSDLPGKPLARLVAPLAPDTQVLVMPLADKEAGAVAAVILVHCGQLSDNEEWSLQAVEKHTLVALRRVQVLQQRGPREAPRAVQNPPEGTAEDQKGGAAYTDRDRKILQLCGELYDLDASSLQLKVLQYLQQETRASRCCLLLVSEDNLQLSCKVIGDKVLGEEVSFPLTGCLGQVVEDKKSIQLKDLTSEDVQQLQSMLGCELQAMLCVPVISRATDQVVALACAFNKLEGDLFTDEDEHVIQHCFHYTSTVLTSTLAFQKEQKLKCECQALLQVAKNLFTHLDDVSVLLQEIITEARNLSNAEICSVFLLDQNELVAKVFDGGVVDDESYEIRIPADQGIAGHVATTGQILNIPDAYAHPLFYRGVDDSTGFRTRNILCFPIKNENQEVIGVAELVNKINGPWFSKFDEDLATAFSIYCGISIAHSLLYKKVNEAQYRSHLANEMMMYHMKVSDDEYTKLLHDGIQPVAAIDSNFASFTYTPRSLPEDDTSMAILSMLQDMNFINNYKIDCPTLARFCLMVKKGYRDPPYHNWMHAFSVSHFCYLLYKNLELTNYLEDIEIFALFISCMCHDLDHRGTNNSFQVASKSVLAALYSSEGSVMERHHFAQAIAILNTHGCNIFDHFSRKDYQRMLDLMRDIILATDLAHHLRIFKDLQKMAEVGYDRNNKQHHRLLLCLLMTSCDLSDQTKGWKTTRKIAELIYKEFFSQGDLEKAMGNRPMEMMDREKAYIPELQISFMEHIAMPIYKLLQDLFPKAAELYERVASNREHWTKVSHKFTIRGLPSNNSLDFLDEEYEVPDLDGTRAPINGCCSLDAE
Chain of PDE10A1 (Q9Y233 1-779 isoform Q9Y233-1, species assumed): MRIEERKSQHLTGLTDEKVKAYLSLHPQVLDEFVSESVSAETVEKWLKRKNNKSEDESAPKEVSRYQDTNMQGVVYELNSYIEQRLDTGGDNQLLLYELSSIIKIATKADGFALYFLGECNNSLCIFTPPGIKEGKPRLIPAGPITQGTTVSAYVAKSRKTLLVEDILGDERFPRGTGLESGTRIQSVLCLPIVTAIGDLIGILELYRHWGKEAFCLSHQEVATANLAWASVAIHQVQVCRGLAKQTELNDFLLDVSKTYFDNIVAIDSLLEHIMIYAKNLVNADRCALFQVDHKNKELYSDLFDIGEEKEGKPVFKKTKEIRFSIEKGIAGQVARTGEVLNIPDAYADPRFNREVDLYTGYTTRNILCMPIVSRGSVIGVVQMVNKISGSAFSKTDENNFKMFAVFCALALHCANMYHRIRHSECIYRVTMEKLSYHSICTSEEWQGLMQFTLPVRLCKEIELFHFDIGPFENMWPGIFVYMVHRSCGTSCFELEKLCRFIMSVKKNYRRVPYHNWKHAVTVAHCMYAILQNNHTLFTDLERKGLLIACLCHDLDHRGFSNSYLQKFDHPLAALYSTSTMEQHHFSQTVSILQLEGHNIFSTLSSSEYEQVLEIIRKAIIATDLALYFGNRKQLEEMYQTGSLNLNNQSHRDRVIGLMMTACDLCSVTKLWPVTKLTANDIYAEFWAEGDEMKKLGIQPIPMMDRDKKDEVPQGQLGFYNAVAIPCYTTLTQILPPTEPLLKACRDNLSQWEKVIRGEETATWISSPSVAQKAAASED
Chain of PDE1C (Q14123 whole entry, species assumed): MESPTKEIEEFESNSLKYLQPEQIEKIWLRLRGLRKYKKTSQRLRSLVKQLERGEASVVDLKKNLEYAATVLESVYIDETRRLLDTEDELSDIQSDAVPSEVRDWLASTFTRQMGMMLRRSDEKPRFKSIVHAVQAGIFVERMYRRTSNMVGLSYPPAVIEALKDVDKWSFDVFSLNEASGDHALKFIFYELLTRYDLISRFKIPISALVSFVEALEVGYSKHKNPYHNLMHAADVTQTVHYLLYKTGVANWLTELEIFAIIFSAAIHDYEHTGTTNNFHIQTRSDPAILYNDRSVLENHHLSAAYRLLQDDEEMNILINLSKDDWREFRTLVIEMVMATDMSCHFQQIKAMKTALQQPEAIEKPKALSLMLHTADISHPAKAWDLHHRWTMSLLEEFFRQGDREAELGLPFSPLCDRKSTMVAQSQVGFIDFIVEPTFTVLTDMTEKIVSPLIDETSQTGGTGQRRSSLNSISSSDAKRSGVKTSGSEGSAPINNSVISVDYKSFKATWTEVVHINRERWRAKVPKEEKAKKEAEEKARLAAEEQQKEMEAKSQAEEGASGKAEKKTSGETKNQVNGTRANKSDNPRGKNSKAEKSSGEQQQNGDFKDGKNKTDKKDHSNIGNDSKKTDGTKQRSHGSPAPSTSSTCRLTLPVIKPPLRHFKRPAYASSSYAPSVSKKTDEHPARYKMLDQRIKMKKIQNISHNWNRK

On to `CCCCCc1ccc(NC(=O)CF)c2c1C(=O)N([C@H](CS(C)(=O)=O)c1ccc(OC)c(OCC)c1)C2=O` [Example 28, (S)-2-[1-(3-ethoxy-4-methoxyphenyl)-2-alkylsulfonylethyl]-4-fluoroacetamido-7-pentyl isoindoline-1,3-diketone], for which the inhibition at 1 µM on PDE3B stood at 3.69%; at PDE5A1, 0%; at PDE2A, 0%; on PDE1C, 1.46%; on PDE7A, 0.55%; at PDE10A1, 29.1%. Further, the inhibition at 10 µM stood at 6.44% on PDE3B; 4.16% at PDE5A1; 5.83% on PDE2A; 24.8% at PDE1C; 10.5% on PDE7A; 0.04% on PDE10A1. In addition, the IC50 against PDE4D3 lay within 5 to 10 nM.
As to `CCCCc1ccc(NC(=O)CCCCl)c2c1C(=O)N([C@H](CS(C)(=O)=O)c1ccc(OC)c(OCC)c1)C2=O` [Example 27, (S)-2-[1-(3-ethoxy-4-methoxyphenyl)-2-alkylsulfonylethyl]-4-(γ-chlorobutyramido)-7-butyl isoindoline-1,3-diketone], the inhibition at 1 µM on PDE3B was determined as 0%; at PDE5A1, 0%; on PDE2A it was 0%; at PDE1C, 12.1%; on PDE7A, 2.21%; on PDE10A1 it was 11.9%. The inhibition at 10 µM on PDE3B was -1.31%; on PDE5A1, 8.14%; on PDE2A, 8.1%; at PDE1C it was 67.5%; at PDE7A it was 14.7%; on PDE10A1, 1.01%. The same compound yielded an IC50 at PDE4D3 of 10 to 50 nM.
With `CCCCCc1ccc(NC(=O)CCl)c2c1C(=O)N([C@H](CS(C)(=O)=O)c1ccc(OC)c(OCC)c1)C2=O` [Example 25, (S)-2-[1-(3-ethoxy-4-methoxyphenyl)-2-alkylsulfonylethyl]-4-(chloroacetamido)-7-pentyl isoindoline-1,3-diketone], the inhibition at 1 µM on PDE3B turned out to be 0%; on PDE5A1, 0%; on PDE2A, 20.4%; on PDE1C, 3.89%; at PDE7A, 4.98%; on PDE10A1, 3.02%. Also, the inhibition at 10 µM on PDE3B worked out at 0.19%; on PDE5A1, 8.17%; on PDE2A, 13.4%; at PDE1C it was 33.8%; on PDE7A it was 24.6%; at PDE10A1, 11.1%. In addition, the IC50 against PDE4D3 was in the range of 10 to 50 nM.
Take `CCCCC(=O)c1ccc(NC(C)=O)c2c1C(=O)N([C@H](CS(C)(=O)=O)c1ccc(OC)c(OCC)c1)C2=O` [Example 56]: the 50% inhibitory concentration (IC50) was 10 to 50 nM at PDE4D3, less than 100 nM at PDE4B2, less than 100 nM at PDE4A1 and 200 to 500 nM on PDE4C1.
As for `CCCC#Cc1ccc(NC(C)=O)c2c1C(=O)N([C@H](CS(C)(=O)=O)c1ccc(OC)c(OCC)c1)C2=O` [Example 7], the inhibition at 1 µM at PDE3B was 1.81%; on PDE5A1, 0%; on PDE2A, 0.08%; on PDE1C, 6.8%; at PDE7A, 3.87%; at PDE10A1 it was 0%. Moreover, the inhibition at 10 µM on PDE3B is 0.06%; on PDE5A1, -2.87%; at PDE2A, 2.65%; at PDE1C, 26.5%; on PDE7A it was 15.5%; at PDE10A1 it was 1.3%. The compound further displayed an IC50 against PDE4D3 of 10 to 50 nM.
On to `[2H]c1c([2H])c(NC(C)=O)c2c(c1CCCCC)C(=O)N([C@H](CS(C)(=O)=O)c1ccc(OC)c(OCC)c1)C2=O` [Example 33], for which the IC50 on PDE4D3 was less than 5 nM; on PDE4B2, less than 100 nM; against PDE4A1, less than 100 nM; on PDE4C1 it was less than 200 nM.
With `CCCCC(O)c1ccc(NC(C)=O)c2c1C(=O)N([C@H](CS(C)(=O)=O)c1ccc(OC)c(OCC)c1)C2=O` (mixture of isomers) [Example 55], the IC50 on PDE4D3 is less than 5 nM; against PDE4B2, less than 100 nM; against PDE4A1 it was less than 100 nM; against PDE4C1, less than 200 nM.
Turning to `[2H]C([2H])(CCCC)c1ccc(NC(C)=O)c2c1C(=O)N([C@H](CS(C)(=O)=O)c1ccc(OC)c(OCC)c1)C2=O` [Example 32], the 50% inhibitory concentration (IC50) is less than 5 nM against PDE4D3, less than 100 nM against PDE4B2, less than 100 nM against PDE4A1 and less than 200 nM against PDE4C1.
Regarding `C=CC(=O)Nc1ccc(CCCCC)c2c1C(=O)N([C@H](CS(C)(=O)=O)c1ccc(OC)c(OCC)c1)C2=O` [Example 29, (S)-2-[1-(3-ethoxy-4-methoxyphenyl)-2-alkylsulfonylethyl]-4-acrylamido-7-pentyl isoindoline-1,3-diketone], the inhibition at 1 µM on PDE3B is 0%; at PDE5A1, 5.72%; on PDE2A it was 7.19%; on PDE1C it was 4.13%; on PDE7A, 17.4%; at PDE10A1, 0%. Also, the inhibition at 10 µM is -1.94% on PDE3B; 13% at PDE5A1; 15.8% at PDE2A; 26% on PDE1C; 19.9% on PDE7A; 16.1% on PDE10A1. On PDE4D3, this compound returned an IC50 of 5 to 10 nM.

Usually inhibition stands for the relative decrease from the control value, in per cent. Broadly, the IC50 is the concentration needed to halve the response being measured. Low values mean inhibition by little substance, high ones a need for much substance.
